Tested on: human iPS cell-derived cardiac myocytes
Experiment: Extracellular potential of cultured cardiac myocytes measured with MEA probe using device 1700
Type: cell-based
Conditions: dofetilide 0.0003, 0.001, 0.003 μM vs DMSO alone; MEA probe (MED64 System); FIG. 23
Description: The method of using the device for retaining and transporting cells 1700 when measuring cell characteristics is described here by taking an example of measuring an extracellular potential generated by cell activity of cardiac myocytes that is formed in the device for retaining and transporting cells 1700. An MEA (Multi-Electrode Array) probe P is used for measuring the extracellular potential. The MEA probe P is a device for measuring the extracellular potential generated by cellular activity. […] The substrate PB has a thin plate shape, and the molten wall PW is formed on the substrate PB. The melted wall PW has a cylindrical shape with one end open, and stores a medium inside, forming a cell arrangement space PS for placing the cells to be tested. […] The extracellular potential of the cultured cardiac myocytes was measured using the device 1700 that is formed using polycarbonate and that has a base 1701 (diameter: 6 mm, thickness: 0.7 mm), a through hole 1703 (diameter: 1.5 mm), a cell culture holding part 105 made of an oriented fiber sheet with a pitch of 10 μm, a manipulating part 1707, and the air vent section 1711, and the MEA probe P (MED64 System, Alpha MED Scientific Inc.). […] The drug response of the cultured cardiac myocytes can be measured by means of the extracellular potential by changing the conditions of the drug to be administered to the cultured cardiac myocytes. […]

## CN(CCOc1ccc(NS(C)(=O)=O)cc1)CCc1ccc(NS(C)(=O)=O)cc1 [dofetilide, Dofetilide]
  time required from the first peak potential to the second peak potential: prolonged depending on the concentration

Reference: patent US20200407674A1, “CELL HOLDING AND TRANSPORTING DEVICE” (Stem Cell & Device Laboratory, Inc., priority 2018, published 2020)
